Source: patent US20210024498A1, “TETRAHYDROPYRROLE COMPOUND, PREPARATION METHOD THEREFOR, PHARMACEUTICAL COMPOSITION CONTAINING SAME, AND USE THEREOF” (MEDICONNS (SHANGHAI) BIOPHARMACEUTICAL CO., LTD, priority 2017, published 2021)
Entries after “also recorded” stand apart in the source; their conditions may differ.

Experiments:
[1] = tested on: PCP-induced high locomotor activity in mice; assay: Phencyclidine (PCP) induced high locomotor activity (LMA) in mice; assay type: in vivo; design: Distance resulting from the activity, First 30 min / Distance resulting from the activity, Last 30 min: unit not given here; details: for Effect on PCP-induced high locomotor activity compared with olanzapine (in words) / Inhibition of PCP-induced high locomotor activity (in words): 5, 10, 20 mg/kg; for Effect on PCP-induced high locomotor activity compared with olanzapine (in words): p.o. vs olanzapine 5 mg/kg p.o.; for Inhibition of PCP-induced high locomotor activity (in words): p.o., P<0.05-0.01; for Distance resulting from the activity, First 30 min / Distance resulting from the activity, Last 30 min: PCP 5.0 mg/kg s.c., male ICR mice
Description: • 1. The effect of the compound on phencyclidine (PCP) induced high locomotor activity (LMA) in mice was detected.
The test compound MDC was milky white powder and stored in a shade and cool place (freshly formulated with 1% DMSO before use). […] Phencyclidine (PCP), purchased from Sigma Aldrich, was a grayish white powder (freshly formulated with normal saline before use). 1% DMSO was formulated by diluting pure DMSO (purity>99.5, purchased from Sigma-Aldrich) with normal saline.
Male ICR mice having weight 22±2 g were kept at 8 mice/cage with 12/12 hours light/dark cycle, temperature 23° C.±1° C., humidity 50% to 60%, free to eat and drink water.
The administration volume was 0.1 ml/10 g body weight; PCP was formulated with normal saline at a dose of 5 mg/kg.
The test compound MDC and olanzapine were administered by gavage and PCP was administered by subcutaneous injection.
After one week of acclimation, mice were randomly divided into 6 groups according to their body weight: negative control group, model group, positive control group, and low dose group, medium dose group and high dose group for the test compound. 8-10 animals/group.
Group 1: Negative control group: Normal saline (s.c.)+1% DMSO (10.0 ml/kg, p.o.);
Group 2: Model group: PCP (5.0 mg/kg, s.c.)+1% DMSO (10.0 ml/kg, p.o.);
Group 4: MDC low dose group: PCP (5.0 mg/kg, s.c.)+MDC (5 mg/kg, p.o.);
Group 5: MDC medium dose group: PCP (5.0 mg/kg, s.c.)+MDC (10 mg/kg, p.o.);
Group 6: MDC high dose group: PCP (5.0 mg/kg, s.c.)+MDC (20 mg/kg, p.o.).
After oral administration, the animals were immediately placed in a locomotor activity box and recorded by Shanghai Jiliang ( ? ) animal video analysis system for 1 hour.
After the experiment, the activity of the animals within 1 hour was analyzed using the trajectory analysis software of Shanghai Jiliang animal video analysis system to obtain the total distance resulting from the activity.

DAT = DAT (Homo sapiens, UniProt Q01959); assay: DAT transporter assay (neurotransmitter transporter absorption assay); assay type: cell-based
Chain of DAT (Q01959 whole entry, species assumed): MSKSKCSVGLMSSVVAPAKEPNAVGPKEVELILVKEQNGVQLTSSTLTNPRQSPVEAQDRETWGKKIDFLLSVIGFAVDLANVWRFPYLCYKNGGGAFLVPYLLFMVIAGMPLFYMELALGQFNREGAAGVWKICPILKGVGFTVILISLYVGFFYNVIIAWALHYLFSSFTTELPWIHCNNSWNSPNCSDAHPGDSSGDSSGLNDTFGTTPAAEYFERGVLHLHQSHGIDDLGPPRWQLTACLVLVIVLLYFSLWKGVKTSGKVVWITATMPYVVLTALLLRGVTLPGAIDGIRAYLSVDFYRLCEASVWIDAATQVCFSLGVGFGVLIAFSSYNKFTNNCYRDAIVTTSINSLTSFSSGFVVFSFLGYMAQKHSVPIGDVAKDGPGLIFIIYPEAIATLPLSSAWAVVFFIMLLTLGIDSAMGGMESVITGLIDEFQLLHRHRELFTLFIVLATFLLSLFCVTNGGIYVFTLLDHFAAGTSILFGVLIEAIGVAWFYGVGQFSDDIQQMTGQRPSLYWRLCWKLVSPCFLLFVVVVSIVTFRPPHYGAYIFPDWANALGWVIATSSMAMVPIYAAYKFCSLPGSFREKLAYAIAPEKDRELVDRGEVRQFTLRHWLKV
Description: Bioactivity Test • I. D2 receptor affinity assay: The affinity of the compound to D2 receptor was determined by radioligand competition assay, and the cloned D2 receptor was expressed in HEK293 cell line. • II. D2 receptor function assay: The ability of the compound to antagonize the D2 receptor was determined using a calcium mobilization assay (FLIPR). • III. DAT receptor function assay: The ability of the compound to inhibit DAT was determined by neurotransmitter transporter absorption assay.
• HBSS1×, REPES 20 mM, BSA 0.1%.
• Lyophilized fluorescent dye 1 vial, Assay buffer 10 mL.
• BTCP—hydrochloride (Sigma)
• i) The medium was preheated in 37° C. water bath in advance for more than 30 minutes for later use. • j) The preheated medium was taken out, disinfected with 75% alcohol, and put into a biosafety cabinet. • k) The cultured cells were taken out from the […], and the medium was removed by a vacuum pump. 1× DPBS was added, incubated for a moment, and then removed by a vacuum pump. Appropriate amount of 0.05% trypsin-EDTA was added for cell digestion. The digestion was terminated by 10% FBS medium, and the cells were pipetted and dispersed. • l) The dispersed cells were transferred into a 50 mL centrifuge tube with a pipette.
• a) The reference compound was diluted in a ratio of 1:3 to 10 concentration gradients with the detection buffer containing 0.1% BSA, with the highest concentration being 2 μM. The compound to be tested was diluted to 20 uM with the detection buffer containing 0.1% BSA. • b) A centrifuge (750 rpm, 15 s) was used to spin off the culture solution in the cell culture plate, and the compound solution in step 1 was transferred to the cell culture plate (25 uL/well). • HC (High control): 25 μL of 0.1% BSA detection buffer containing 0.2% DMSO. • LC (Low control): 25 μL of solution containing 2 μM positive antagonist. • c) After centrifugation at 300 rpm for 15 seconds, the plate was incubated at 37° C. for 30 minutes. After the incubation with the compound was completed, a dye solution (25 μL/well) was added and incubated at 37° C. for 30 minutes.
Inhibitor % activity=100−(signal value per well−average value for LC well)/(average value for H well−average value for LC well)*100%.

[2] = 5 mg/kg p.o. (low dose group; olanzapine positive control)
[3] = 10 mg/kg p.o. (medium dose group)
[4] = 20 mg/kg p.o. (high dose group)

O=S(=O)(Nc1cccc(C2CCN(Cc3c[nH]c4ccccc34)C2)c1)c1cccs1 (stereo not drawn) [MDC-161502-008, 1-(indole-3-methyl)-3-[3-(2-thiophenesulfonamido)phenyl]pyrrolidine]
Effect on PCP-induced high locomotor activity compared with olanzapine (in words) [1]: equivalent to the effect of the positive drug olanzapine | Inhibition of PCP-induced high locomotor activity (in words) [1]: inhibited PCP-induced high locomotor activity in mice | Distance resulting from the activity, First 30 min [1, 2]: 299745 | Distance resulting from the activity, First 30 min [1, 3]: 246900 | Distance resulting from the activity, Last 30 min [1, 3]: 230876 | Distance resulting from the activity, First 30 min [1, 4]: 220968 | Distance resulting from the activity, Last 30 min [1, 4]: 189765 | IC50 (DAT): 0.936 µM

Oc1cccc(C2CCN(Cc3c[nH]c4ccccc34)C2)c1 (racemic) [MDC-161502-002, 1-(indole-3-methyl)-3-(3-hydroxyphenyl)pyrrolidine]
Effect on PCP-induced high locomotor activity compared with olanzapine (in words) [1]: equivalent to the effect of the positive drug olanzapine; also recorded: significant advantages over olanzapine | Inhibition of PCP-induced high locomotor activity (in words) [1]: inhibited PCP-induced high locomotor activity in mice | Distance resulting from the activity, First 30 min [1, 2]: 241185 | Distance resulting from the activity, Last 30 min [1, 2]: 265712 | Distance resulting from the activity, First 30 min [1, 3]: 211543 | Distance resulting from the activity, Last 30 min [1, 3]: 206789 | Distance resulting from the activity, First 30 min [1, 4]: 158231 | Distance resulting from the activity, Last 30 min [1, 4]: 110918 | IC50 (DAT): 0.181 µM

O=S(=O)(CC(F)(F)F)Nc1cccc(C2CCN(Cc3c[nH]c4ccccc34)C2)c1 (stereo not drawn) [MDC-161502-006, 1-(indole-3-methyl)-3-(3-trifluoroethanesulfonamidophenyl)pyrrolidine]
Distance resulting from the activity, First 30 min [1, 2]: 327586 | Distance resulting from the activity, Last 30 min [1, 2]: 302499 | Distance resulting from the activity, First 30 min [1, 3]: 286745 | Distance resulting from the activity, Last 30 min [1, 3]: 267834 | Distance resulting from the activity, First 30 min [1, 4]: 248576 | Distance resulting from the activity, Last 30 min [1, 4]: 230867 | IC50 (DAT): 0.762 µM
